Reference: patent publication EP0316592A2, “3'-Fluoro-2',3'-dideoxyuridine, and its therapeutic application” (Stichting REGA V.Z.W., priority 1987, dated 1989)
Values joined by “and” are separate entries in the source; they are usually repeats but may differ in a detail not shown here. Equal entries are not always repeated. Where two headings read alike, the source gives them in different places.

Assays:
HIV = experiment: Inhibition of HIV-induced cytopathogenicity in MT4 cells; assay type: cell-based; conditions: for EC50: 50% reduction in the cytopathic effect of HIV for MT4 cells, 5 days, read-out: HIV-induced cyto-pathogenicity ED50; for HIV-induced cyto-pathogenicity S.I.: Selectivity index or ratio of CD50 to ED50, MT4 cells
Procedure: HTLV-IIIB (designated HIV) was derived from a pool of American patients with AIDS, and obtained from the supernatant of HIV-infected H9 cell cultures (see M. Popovic et al, Science 224, 497-500 (1984)).
FddUrd, the unsubstituted analogue and other 3′-fluoro- and 3′-azido-substituted analogues were evaluated for their inhibitory effects on HIV-induced cytopathogenicity in MT4 cells (Table 1, fig. 2).

MT4 cells = experiment: Cytotoxicity for non-infected MT4 cells (viable cell count)
Procedure: Then 100 µl of the infected cell suspension was added to 100 µl of an appropriate dilution of test compound in 200 µ1 wells of a Flat Bottom Microtest III Plate (Falcon, Becton Dickinson, Oxnard, CA, USA) (i.e. 40 CCID₅₀ HIV/200 µ1 well/5 x 10⁴ cells), and further incubated at 37°C in a CO₂-controlled humidified atmosphere.

[1] = target: T1, bacterial thymidine phosphorylase (Escherichia coli, UniProt P07650); experiment: Phosphorolytic cleavage by dThd phosphorylase; assay type: biochemical; conditions: for susceptibility to phosphorolysis by dThd phosphorylase (in words): purified bacterial dThd phosphorylase; for Initial velocity of phosphorolysis: 25°C, 0.1 M sodium phosphate buffer, pH 7.0, N.D. = not detectable with 25 units of enzyme
T1 construct: purchased Sigma Chemical Co., St. Louis, MO
Procedure: Phosphorolytic cleavage of the test compounds was assessed using purified bacterial dThd phosphorylase (Sigma Chemical Co., St. Louis, MO) with the aid of a Beckman spectrophotometer UV/Vis 5200; the absorbance change during the enzyme reaction was continuously monitored at 25°C at the wavelength where the difference of absorption between the nucleoside and its free base was maximal. The reaction mixtures for all the assays consisted of enzyme and non-satura ting concentrations of nucleoside in 0.1 M sodium phosphate buffer, pH 7.0. The initial velocity of phosphorolysis was expressed as nmol/min/enzyme unit.

Molt/4F cells = experiment: Tritium release from (5-3H)dUrd or (5-3H)dCyd in intact Molt/4F cells; assay type: cell-based; conditions: Homo sapiens
Procedure: Briefly, 10⁷ Molt/4F cells/ml were preincubated with an appropriate amount of test compound for 15 min at 37°C. After this incubation period, radiolabelled (5-³H)dUrd or (5-³H)dCyd (100 µCi/ml; 0.1 µM) were added, and at various times (0, 15, 30, 45, 60 min), 100 µl of the reaction mixture was withdrawn, and mixed with 500 µl of a cold suspension of carbon black (100 mg/ml) in 5% TCA. After centrifugation at 1000 g for 10 min, the supernatants were analysed for radioactivity.

MOLT/4F CELL DNA = experiment: Incorporation of radiolabelled precursors into Molt/4F cell DNA; assay type: cell-based, human; conditions: for IC50: Homo sapiens, Molt/4F cell DNA, 20-24 hours; for stimulatory effect on (5-3H)dCyd incorporation into DNA: as compared to the control
Procedure: The impact of ddUrd and the 3′-fluoro- and 3′-azido-substituted pyrimidine 2′,3′-dideoxynucleoside analogues on cellular DNA biosynthesis was evaluated by monitoring the effect of these compounds on the incorporation of radio- labelled (1′,2′-³H)dUrd (specific radioactivity 27 Ci/mmol), (methyl-³H)dThd (specific radioactivity […]) and (5-³H)dCyd (specific radioactivity 20 Ci/mmol) into DNA of Molt/4F cells.
The incorporation of radiolabelled precursors into Molt/4F cellular DNA was measured in microtest III plates (96 wells) (Flacon) as previously described (J. Balzarini et al, Mol. Pharmacol. 23, 175-181 (1983)). Shortly, to each well of the microplate were added 10⁵ Molt/4F cells and 0.25 µCi of (1′,2′-³H)dUrd, (methyl³H)dThd or (5-³H)dCyd. The cells were allowed to proliferate for 20-24 hours at 37°C in a humidified CO₂-controlled atmosphere. At the end of this incubation period, the contents of the wells (200 µ1) were brought onto 25-mm glass-fibre filters (type A/E, Gelman Instrument Company, Ann Arbor, Mich., USA) and washed twice with cold phosphate-buffered saline, twice with cold 10% trichloroacetic acid (TCA), twice with cold 5% TCA, once with ethanol and once with ether. The filters were then assayed for radioactivity in a toluene-based scintillant.

Molt/4F dThd kinase = target: T2, Molt/4F dThd kinase (Homo sapiens, UniProt P04183); experiment: Inhibition of dThd kinase (Lineweaver-Burk); assay type: biochemical; conditions: for Ki: substrate (2-14C)dThd; for Type of inhibition: with respect to dThd
T2 construct: endogenous in cells; host or cells: Molt/4F cells (sonicated extract, 30-70% ammonium sulfate fraction, dialyzed)
T2 sequence (P04183 1-234): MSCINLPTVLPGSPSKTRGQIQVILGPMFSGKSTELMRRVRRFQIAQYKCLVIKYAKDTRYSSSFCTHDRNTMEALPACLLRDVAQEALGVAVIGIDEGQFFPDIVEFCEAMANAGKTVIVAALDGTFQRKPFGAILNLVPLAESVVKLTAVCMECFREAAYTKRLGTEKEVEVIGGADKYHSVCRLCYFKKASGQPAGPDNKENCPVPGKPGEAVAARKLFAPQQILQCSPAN
Procedure: ddUrd and the 3′-fluoro- and 3′-azido-substituted pyrimidine 2′,3′-dideoxynucleoside analogues were evaluated for their inhibitory effect against dThd and dCyd kinase.
dThd kinase and dCyd kinase were prepared from exponen tially growing Molt/4F cells, which were first washed (2x) with phosphate-buffered saline at 4° and then homogenized by sonication. The suspensions were clarified by centrifugation at 25,000-27,000 x g for 30 min. The 30-70% (NH₄)₂SO₄ precipitate of the supernatant was resuspended in buffer containing 10 uM potassium phosphate, pH 7.5, 10 mM β-mercaptoethanol and 0.1 M KCl, dialyzed against the same buffer, and used for the dThd kinase and the dCyd kinase assays. In these experiments, (2-¹⁴C)dThd and (U-¹⁴C)dCyd served as the radiolabelled substrates. The apparent Km and Ki values were derived from Lineweaver-Burk plots, using a linear regression analysis program.

C3H cells = experiment: Cytotoxicity for C3H cells (alteration of normal cell morphology); assay type: cell-based, mouse
[2] = Human immunodeficiency virus 1, MT4, 120 h
[3] = 50% reduction of viable cells in non-infected MT4 cell cultures, 5 days
[4] = read-out: ID50 tritium release from (5-3H)dCyd
[5] = read-out: ID50 tritium release from (5-3H)dUrd
[6] = read-out: ID50 (1',2'-3H)dUrd incorporation
[7] = read-out: ID50 (5-3H)dCyd incorporation
[8] = read-out: ID50 (methyl-3H)dThd incorporation
[9] = alteration of normal cell morphology, C3H cells

T1 sequence (P07650 whole entry): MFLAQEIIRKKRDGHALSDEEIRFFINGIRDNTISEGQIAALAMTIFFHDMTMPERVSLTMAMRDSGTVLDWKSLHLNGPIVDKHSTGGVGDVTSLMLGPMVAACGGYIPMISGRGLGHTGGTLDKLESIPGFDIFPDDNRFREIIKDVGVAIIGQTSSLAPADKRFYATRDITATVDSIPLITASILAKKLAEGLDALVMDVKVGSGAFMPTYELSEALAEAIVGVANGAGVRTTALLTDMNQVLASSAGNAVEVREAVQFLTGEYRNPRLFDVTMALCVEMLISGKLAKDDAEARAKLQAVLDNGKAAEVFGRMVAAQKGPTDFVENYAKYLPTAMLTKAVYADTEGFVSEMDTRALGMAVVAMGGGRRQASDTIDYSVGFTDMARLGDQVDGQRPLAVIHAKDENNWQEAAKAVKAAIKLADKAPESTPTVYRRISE

CCc1cn([C@H]2C[C@H](N=[N+]=[N-])[C@@H](CO)O2)c(=O)[nH]c1=O [AzddEtUrd, 3′-azido-2′,3′-dideoxy-5-ethyluridine]
EC50 (HIV): 64 µM
EC50 (HIV; [2]): > 64 µM
HIV-induced cyto-pathogenicity S.I. (HIV): 6.5
HIV-induced cyto-pathogenicity CD50 (MT4 cells; [3]): 418 µM
susceptibility to phosphorolysis by dThd phosphorylase (in words) [1]: no phosphorolytic cleavage whatsoever
IC50 (Molt/4F cells; [4]): > 250 µM
IC50 (Molt/4F cells; [5]): 51 µM
IC50 (MOLT/4F CELL DNA; [6]): > 1000 µM
IC50 (MOLT/4F CELL DNA; [7]): > 1000 µM
IC50 (MOLT/4F CELL DNA; [8]): > 1000 µM
Ki (Molt/4F dThd kinase; dThd kinase): 175 µM
Type of inhibition (Molt/4F dThd kinase; dThd kinase): competitive
Ki/Km (Molt/4F dThd kinase; dThd kinase, Km 2.5 to 6.6 µM): 28
MSV-induced cyto-pathogenicity CD50 (C3H cells; [9]): >200 µM

Nc1ccn([C@H]2C[C@H](F)[C@@H](CO)O2)c(=O)n1 [FddCyd, 3′-fluoro-2′,3′-dideoxycytidine]
EC50 (HIV; [2]): 16 µM
HIV-induced cyto-pathogenicity S.I. (HIV): 1.6
HIV-induced cyto-pathogenicity CD50 (MT4 cells; [3]): 26 µM
susceptibility to phosphorolysis by dThd phosphorylase (in words) [1]: totally resistant
IC50 (MOLT/4F CELL DNA; [6]): 27.3 µM
IC50 (MOLT/4F CELL DNA; [7]): > 1000 µM
IC50 (MOLT/4F CELL DNA; [8]): > 1000 µM
stimulatory effect on (5-3H)dCyd incorporation into DNA (MOLT/4F CELL DNA; at 200 µM): 1.7 fold
stimulatory effect on (5-3H)dCyd incorporation into DNA (MOLT/4F CELL DNA; at 1000 µM): 2 fold
MSV-induced cyto-pathogenicity CD50 (C3H cells; [9]): >400 µM

Nc1ccn([C@H]2CC[C@@H](CO)O2)c(=O)n1 [ddCyd, 2′,3′-Dideoxycytidine]
EC50 (HIV; [2]): 0.3 µM
HIV-induced cyto-pathogenicity S.I. (HIV): 120
HIV-induced cyto-pathogenicity CD50 (MT4 cells; [3]): 40 µM
susceptibility to phosphorolysis by dThd phosphorylase (in words) [1]: totally resistant
IC50 (MOLT/4F CELL DNA; [6]): 32 µM
IC50 (MOLT/4F CELL DNA; [7]): > 1000 µM
IC50 (MOLT/4F CELL DNA; [8]): 753 µM
stimulatory effect on (5-3H)dCyd incorporation into DNA (MOLT/4F CELL DNA; at 200 µM): 1.7 fold
stimulatory effect on (5-3H)dCyd incorporation into DNA (MOLT/4F CELL DNA; at 1000 µM): 2 fold
MSV-induced cyto-pathogenicity CD50 (C3H cells; [9]): >400 µM

CCc1cn([C@H]2C[C@H](F)[C@@H](CO)O2)c(=O)[nH]c1=O [FddEtUrd, 3′-fluoro-2′,3′-dideoxy-5-ethyluridine]
EC50 (HIV): 330 µM
HIV-induced cyto-pathogenicity S.I. (HIV): >1.9
HIV-induced cyto-pathogenicity CD50 (MT4 cells; [3]): >625 µM
susceptibility to phosphorolysis by dThd phosphorylase (in words) [1]: no phosphorolytic cleavage whatsoever
IC50 (Molt/4F cells; [5]): > 250 µM
IC50 (MOLT/4F CELL DNA; [6]): > 1000 µM
IC50 (MOLT/4F CELL DNA; [7]): > 1000 µM
IC50 (MOLT/4F CELL DNA; [8]): > 1000 µM
Ki (Molt/4F dThd kinase; dThd kinase): 266 µM
Type of inhibition (Molt/4F dThd kinase; dThd kinase): competitive
Ki/Km (Molt/4F dThd kinase; dThd kinase, Km 2.5 to 6.6 µM): 72
MSV-induced cyto-pathogenicity CD50 (C3H cells; [9]): >400 µM

[N-]=[N+]=N[C@H]1C[C@H](n2ccc(=O)[nH]c2=O)O[C@@H]1CO [AzddUrd, 3′-azido-2′,3′-dideoxyuridine]
fold more effective against HIV replication than the parent compound ddUrd (HIV): 600 fold
EC50 (HIV; Human immunodeficiency virus 1, 120 h): 0.36 µM
HIV-induced cyto-pathogenicity S.I. (HIV): 677
HIV-induced cyto-pathogenicity CD50 (MT4 cells; [3]): 244 µM
IC50 (Molt/4F cells; [4]): > 250 µM
IC50 (Molt/4F cells; [5]): 20 µM
IC50 (MOLT/4F CELL DNA; [6]): 172 µM
IC50 (MOLT/4F CELL DNA; [7]): 725 µM
IC50 (MOLT/4F CELL DNA; [8]): > 1000 µM
Ki/Km (Molt/4F dThd kinase): 71
Ki (Molt/4F dThd kinase; dThd kinase): 224 µM
Type of inhibition (Molt/4F dThd kinase; dThd kinase): competitive
MSV-induced cyto-pathogenicity CD50 (C3H cells; [9]): >400 µM

O=c1ccn([C@H]2CC[C@@H](CO)O2)c(=O)[nH]1 [ddUrd, 2′-3′-dideoxyuridine]
EC50 (HIV): 210 µM
EC50 (HIV; [2]): > 64 µM
HIV-induced cyto-pathogenicity S.I. (HIV): > 3
HIV-induced cyto-pathogenicity CD50 (MT4 cells): >625 µM
Initial velocity of phosphorolysis [1]: 0.270 nmol/min/unit
IC50 (Molt/4F cells; [4]): > 250 µM
IC50 (Molt/4F cells; [5]): > 250 µM
IC50 (MOLT/4F CELL DNA; [6]): > 1000 µM
IC50 (MOLT/4F CELL DNA; [7]): > 1000 µM
IC50 (MOLT/4F CELL DNA; [8]): > 1000 µM
Ki/Km (Molt/4F dThd kinase): >250
inhibitory activity against dThd kinase (in words) (Molt/4F dThd kinase; at a concentration as high as 750 µM or 1000 µM): no inhibitory activity
Ki (Molt/4F dThd kinase; dThd kinase): > 1000 µM
MSV-induced cyto-pathogenicity CD50 (C3H cells): >400 µM

O=c1ccn([C@H]2C[C@H](F)[C@@H](CO)O2)c(=O)[nH]1 [FddUrd, 3′-fluoro-2′,3′-dideoxyuridine]
fold more effective against HIV replication than the parent compound ddUrd (HIV): 5000 fold
fold more potent/effective against HIV than AzddUrd (HIV): 9 fold and 10 fold
EC50 (HIV; [2]): 0.04 µM
HIV-induced cyto-pathogenicity S.I. (HIV): 400
HIV-induced cyto-pathogenicity CD50 (MT4 cells; [3]): 16 µM
Initial velocity of phosphorolysis [1]: 0.018 nmol/min/unit
IC50 (Molt/4F cells; [4]): > 250 µM
IC50 (Molt/4F cells; [5]): 126 µM
IC50 (MOLT/4F CELL DNA; [6]): 16 µM
IC50 (MOLT/4F CELL DNA; [7]): > 1000 µM
IC50 (MOLT/4F CELL DNA; [8]): > 1000 µM
Ki (Molt/4F dThd kinase; dThd kinase): 833 µM
Type of inhibition (Molt/4F dThd kinase; dThd kinase): competitive
Ki/Km (Molt/4F dThd kinase; dThd kinase, Km 2.5 to 6.6 µM): 171
MSV-induced cyto-pathogenicity CD50 (C3H cells; [9]): >400 µM
